Measured values from PMC9837035 (Nature Communications, 2023).
Several values for one entry are separate records, joined by “and”; a condition that tells them apart may be missing. Identical values can stand only once. Like-named read-outs stand apart in the source and are kept apart here.

Assays:
H3K9me2 in CD34+ cells = assay: Western blotting of H3K9me2 in CD34+ cells; type: cell-based, human
Description: HUDEP-2 cells and HiDEP-1 cells were grown in Stemline II Hematopoietic Stem Cell Expansion Medium (Sigma) supplemented with 50 ng/mL recombinant stem cell factor (SCF; R&D systems), 3 IU/mL recombinant erythropoietin (EPO; Kyowa Kirin), 1 μM dexamethasone (Dex; Sigma), and 1 μg/mL doxycycline (Sigma). A total of 1 × 10^5 human CD34^+ progenitor cells derived from bone marrow or peripheral blood (Lonza) were cultured on 35-mm dishes (BD Falcon) in StemSpan SFEMII medium with 50 ng/mL SCF, 5 IU/mL EPO, and 10 ng /mL interleukin 3 (IL-3; R&D systems). The medium was changed on day 4 to SCF, EPO, and 1 μM Dex, and the cells were transferred to 60-mm dishes (BD Falcon). Seven days after the onset of differentiation, cells were counted and 1 × 10^6 cells were re-plated on 100-mm dishes (BD Falcon) with SCF, EPO, and Dex. The rat myoblast cell line H9c2, HEK293T, and PLAT-E cells were maintained in Dulbecco’s modified Eagle’s medium (Thermo Fisher Scientific) supplemented with 10% heat-inactivated fetal bovine serum (FBS) and penicillin/streptomycin. All cells were cultured at 37 °C under 5% CO2.
Preparation of cell lysates and western blotting were performed as described previously. […] The immune complexes were detected with the Immobilon Western Chemiluminescent HRP Substrate (Millipore). Luminescence was analyzed on a FUSION SOLO S (Vilber). […]

[1] = Caco-2 permeability assay; type: in vitro ADME; details: human
Caco-2 = Caco-2 permeability assay; type: in vitro ADME; details: replicate values
PRMT1 = PRMT1 (Homo sapiens, UniProt Q99873)
EZH1 = EZH1 (Homo sapiens, UniProt Q92800); assay: biochemical
G9a = biological target: T1, G9a (Homo sapiens, UniProt Q96KQ7); assay: Kinetic analysis by ALPHA (IC50 vs H3 peptide or SAM); type: biochemical; set-up: purchased BPS Bioscience; details: for IC50: 3 replicates
T1 sequence (Q96KQ7 1-1210): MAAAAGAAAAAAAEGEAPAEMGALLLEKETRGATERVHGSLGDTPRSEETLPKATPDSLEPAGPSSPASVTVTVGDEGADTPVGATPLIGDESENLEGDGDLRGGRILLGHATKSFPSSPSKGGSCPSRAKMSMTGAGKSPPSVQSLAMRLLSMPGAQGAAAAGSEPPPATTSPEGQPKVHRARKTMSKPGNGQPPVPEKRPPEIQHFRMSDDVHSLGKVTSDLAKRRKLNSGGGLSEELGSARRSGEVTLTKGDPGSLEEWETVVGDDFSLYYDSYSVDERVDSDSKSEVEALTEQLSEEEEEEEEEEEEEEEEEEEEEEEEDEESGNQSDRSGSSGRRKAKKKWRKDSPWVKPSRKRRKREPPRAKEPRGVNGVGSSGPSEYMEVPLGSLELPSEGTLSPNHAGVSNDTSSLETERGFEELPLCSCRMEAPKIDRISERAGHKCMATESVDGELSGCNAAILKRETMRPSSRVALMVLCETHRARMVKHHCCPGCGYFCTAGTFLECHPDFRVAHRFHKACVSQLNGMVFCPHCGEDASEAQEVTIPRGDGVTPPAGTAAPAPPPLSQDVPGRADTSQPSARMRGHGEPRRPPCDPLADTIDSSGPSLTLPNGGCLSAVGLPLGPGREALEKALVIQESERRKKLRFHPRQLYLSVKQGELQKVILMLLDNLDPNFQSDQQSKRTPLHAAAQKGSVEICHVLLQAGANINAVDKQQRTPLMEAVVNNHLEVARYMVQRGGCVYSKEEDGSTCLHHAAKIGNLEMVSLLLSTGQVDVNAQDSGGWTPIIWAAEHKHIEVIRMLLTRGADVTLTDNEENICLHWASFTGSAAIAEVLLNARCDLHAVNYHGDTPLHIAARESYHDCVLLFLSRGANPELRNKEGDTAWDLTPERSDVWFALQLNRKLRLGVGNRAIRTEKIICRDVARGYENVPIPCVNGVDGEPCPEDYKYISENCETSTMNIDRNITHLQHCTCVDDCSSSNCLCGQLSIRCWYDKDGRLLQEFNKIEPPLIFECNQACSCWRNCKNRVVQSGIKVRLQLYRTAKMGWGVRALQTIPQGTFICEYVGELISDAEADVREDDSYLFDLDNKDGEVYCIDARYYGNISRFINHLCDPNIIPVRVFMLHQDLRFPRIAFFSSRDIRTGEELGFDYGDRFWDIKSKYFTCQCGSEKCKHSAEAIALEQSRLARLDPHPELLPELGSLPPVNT
Description: Kinetic analysis was measured by ALPHA. […] ALPHA profile was analyzed using Origin (OriginLab).

Chain of PRMT1 (Q99873 whole entry): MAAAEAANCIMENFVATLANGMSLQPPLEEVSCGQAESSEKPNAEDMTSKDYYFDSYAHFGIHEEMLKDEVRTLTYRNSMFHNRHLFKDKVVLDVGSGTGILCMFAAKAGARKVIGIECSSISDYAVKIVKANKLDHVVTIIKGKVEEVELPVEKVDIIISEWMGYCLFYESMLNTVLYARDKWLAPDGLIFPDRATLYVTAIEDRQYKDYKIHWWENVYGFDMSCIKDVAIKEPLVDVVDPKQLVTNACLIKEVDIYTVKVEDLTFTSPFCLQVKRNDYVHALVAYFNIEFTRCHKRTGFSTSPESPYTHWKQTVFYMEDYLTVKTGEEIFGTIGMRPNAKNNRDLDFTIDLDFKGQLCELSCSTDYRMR
Chain of EZH1 (Q92800 whole entry): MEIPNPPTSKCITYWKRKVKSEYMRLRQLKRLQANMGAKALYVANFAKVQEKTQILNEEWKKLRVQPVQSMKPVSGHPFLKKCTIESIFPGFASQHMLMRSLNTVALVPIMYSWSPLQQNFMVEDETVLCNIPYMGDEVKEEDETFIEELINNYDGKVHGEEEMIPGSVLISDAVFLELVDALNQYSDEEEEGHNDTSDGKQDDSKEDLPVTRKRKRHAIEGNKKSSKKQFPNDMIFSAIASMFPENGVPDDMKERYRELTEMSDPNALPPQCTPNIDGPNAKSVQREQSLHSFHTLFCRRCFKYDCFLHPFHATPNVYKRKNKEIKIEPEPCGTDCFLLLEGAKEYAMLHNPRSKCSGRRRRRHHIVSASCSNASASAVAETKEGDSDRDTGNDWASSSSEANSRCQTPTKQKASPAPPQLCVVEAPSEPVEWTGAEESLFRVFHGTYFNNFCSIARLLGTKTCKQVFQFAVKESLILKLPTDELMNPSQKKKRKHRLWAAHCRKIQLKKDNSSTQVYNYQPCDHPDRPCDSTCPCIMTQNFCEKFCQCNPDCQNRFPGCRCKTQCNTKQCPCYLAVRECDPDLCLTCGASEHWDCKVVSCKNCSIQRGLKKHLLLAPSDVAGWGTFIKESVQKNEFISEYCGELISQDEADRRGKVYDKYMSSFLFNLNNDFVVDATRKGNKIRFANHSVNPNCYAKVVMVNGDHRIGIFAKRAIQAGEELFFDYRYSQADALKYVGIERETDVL
Chain of EZH1 (O75530 whole entry partner): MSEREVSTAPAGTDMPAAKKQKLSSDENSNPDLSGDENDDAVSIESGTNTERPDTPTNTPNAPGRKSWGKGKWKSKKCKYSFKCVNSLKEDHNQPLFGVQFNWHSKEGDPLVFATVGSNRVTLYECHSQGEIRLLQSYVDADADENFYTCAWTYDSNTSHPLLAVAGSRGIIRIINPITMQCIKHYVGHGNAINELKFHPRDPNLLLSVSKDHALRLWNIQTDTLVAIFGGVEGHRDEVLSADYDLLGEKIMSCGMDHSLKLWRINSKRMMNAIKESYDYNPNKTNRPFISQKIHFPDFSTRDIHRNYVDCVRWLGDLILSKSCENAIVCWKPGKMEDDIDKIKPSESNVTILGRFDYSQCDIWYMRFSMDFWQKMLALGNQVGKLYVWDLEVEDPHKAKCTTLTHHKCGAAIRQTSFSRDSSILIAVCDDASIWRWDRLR
Chain of EZH1 (Q15022 whole entry partner): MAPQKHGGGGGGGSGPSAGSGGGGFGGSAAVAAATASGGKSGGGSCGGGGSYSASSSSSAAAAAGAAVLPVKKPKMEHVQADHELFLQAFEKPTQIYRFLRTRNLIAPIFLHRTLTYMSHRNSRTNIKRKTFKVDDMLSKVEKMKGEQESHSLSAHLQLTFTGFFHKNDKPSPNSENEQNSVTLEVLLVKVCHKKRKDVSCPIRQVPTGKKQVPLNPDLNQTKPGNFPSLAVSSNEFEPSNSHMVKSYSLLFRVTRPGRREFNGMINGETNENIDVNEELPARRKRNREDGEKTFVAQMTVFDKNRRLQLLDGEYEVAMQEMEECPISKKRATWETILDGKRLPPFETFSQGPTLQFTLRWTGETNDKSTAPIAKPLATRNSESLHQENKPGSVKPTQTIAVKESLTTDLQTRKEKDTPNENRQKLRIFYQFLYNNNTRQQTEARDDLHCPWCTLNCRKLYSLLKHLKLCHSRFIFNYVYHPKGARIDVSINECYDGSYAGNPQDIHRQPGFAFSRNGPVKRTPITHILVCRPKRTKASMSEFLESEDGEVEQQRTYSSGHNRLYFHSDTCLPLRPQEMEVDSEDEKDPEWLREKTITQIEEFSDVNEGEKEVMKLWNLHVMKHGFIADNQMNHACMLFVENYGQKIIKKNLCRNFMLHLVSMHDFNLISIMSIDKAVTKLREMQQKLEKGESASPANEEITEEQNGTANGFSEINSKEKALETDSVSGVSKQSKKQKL
Chain of EZH1 (Q09028 whole entry partner): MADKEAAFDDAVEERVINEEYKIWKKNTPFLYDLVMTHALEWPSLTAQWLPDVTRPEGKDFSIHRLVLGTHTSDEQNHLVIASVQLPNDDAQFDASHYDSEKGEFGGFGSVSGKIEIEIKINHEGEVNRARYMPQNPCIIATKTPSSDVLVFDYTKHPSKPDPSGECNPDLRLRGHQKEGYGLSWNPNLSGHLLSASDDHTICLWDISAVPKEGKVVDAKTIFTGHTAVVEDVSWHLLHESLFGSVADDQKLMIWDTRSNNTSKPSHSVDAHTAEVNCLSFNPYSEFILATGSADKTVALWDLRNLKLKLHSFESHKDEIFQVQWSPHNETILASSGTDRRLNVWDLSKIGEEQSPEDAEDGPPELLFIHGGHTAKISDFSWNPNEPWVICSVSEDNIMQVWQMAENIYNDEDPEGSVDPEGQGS
Chain of EZH1 (Q6ZN18 whole entry partner): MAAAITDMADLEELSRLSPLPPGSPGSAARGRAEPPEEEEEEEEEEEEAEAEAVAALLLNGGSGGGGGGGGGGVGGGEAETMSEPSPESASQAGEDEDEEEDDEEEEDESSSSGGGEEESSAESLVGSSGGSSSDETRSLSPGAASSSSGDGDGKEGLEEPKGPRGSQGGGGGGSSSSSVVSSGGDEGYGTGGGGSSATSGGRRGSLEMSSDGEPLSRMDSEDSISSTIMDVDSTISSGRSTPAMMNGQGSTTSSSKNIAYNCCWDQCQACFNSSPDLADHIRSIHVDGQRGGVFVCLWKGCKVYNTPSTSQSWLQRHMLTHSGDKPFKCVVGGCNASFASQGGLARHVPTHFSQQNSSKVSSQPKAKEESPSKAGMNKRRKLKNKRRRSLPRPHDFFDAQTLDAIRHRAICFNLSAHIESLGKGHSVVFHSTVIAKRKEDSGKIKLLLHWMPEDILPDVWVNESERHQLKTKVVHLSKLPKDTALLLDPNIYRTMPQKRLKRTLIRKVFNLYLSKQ

## NC(=O)NO [Hydroxyurea, hydroxyurea]
H3K9me2 in CD34+ cells
  H3K9me2 level: did not affect the H3K9me2 level

## Cc1c(C(=O)NC(CCC2CC2)C(=O)Nc2ccc(C#N)cc2)[nH]c2c1C(=O)CC(C)(C)C2 (stereo not shown) [RK-701]
[1]; Caco-2, A to B, replicate values, read-out: Papp A to B
  Papp A→B: 4.8 ×10⁻⁶ cm/s
[1]; Caco-2, Apical to Basal, read-out: Caco-2 permeability Papp A to B
  Papp A→B: 5.23 ± 0.47 ×10⁻⁶ cm/s
[1]; Caco-2, B to A, replicate values, read-out: Papp B to A
  Papp B→A: 19.5 ×10⁻⁶ cm/s
[1]; Caco-2, Basal to Apical, read-out: Caco-2 permeability Papp B to A
  Papp B→A: 18.9 ± 0.92 ×10⁻⁶ cm/s
Caco-2; A to B
  Papp A to B: 5.724 and 5.177
Caco-2; B to A
  Papp B to A: 17.8638 and 19.3603
PRMT1
  IC50: > 100000 nM
EZH1
  IC50: > 100000 nM
G9a
  mode of inhibition, SAM: uncompetitive inhibition with respect to SAM
  mode of inhibition, histone H3 peptide: histone H3 substrate-competitive inhibitor
G9a; H3(1-21)-biotin 6.25 nM
  IC50: 9.85 nM and 9.46 nM and 8.82 nM
G9a; H3(1-21)-biotin 12.5 nM
  IC50: 8.26 nM and 13.4 nM and 10.5 nM
G9a; H3(1-21)-biotin 25 nM
  IC50: 11.7 nM and 18.2 nM and 17.3 nM
G9a; H3(1-21)-biotin 50 nM
  IC50: 20.2 nM and 32.1 nM and 26.2 nM
G9a; H3(1-21)-biotin 100 nM
  IC50: 34.8 nM and 34.6 nM and 31.4 nM
G9a; SAM 0.47 µM
  IC50: 154 nM and 149 nM and 150 nM
G9a; SAM 0.94 µM
  IC50: 65.3 nM and 98.6 nM and 43.1 nM
G9a; SAM 1.88 µM
  IC50: 30.6 nM and 57.4 nM and 24.3 nM
G9a; SAM 3.75 µM
  IC50: 23.5 nM and 39.6 nM and 21.1 nM
G9a; SAM 7.5 µM
  IC50: 27.8 nM and 38.9 nM and 11.8 nM
G9a; SAM 15 µM
  IC50: 25 nM and 37.5 nM and 12.8 nM
